Measured values from US12702667B2, “Focal adhesion kinase inhibitor as a therapeutic agent in diabetes” (University of Pittsburgh—Of the Commonwealth System of …, priority 2017, dated 2026).
“Also recorded” adds a separate entry of the source.

Assays:
[1] = system: STZ-treated E1aCreERT2; R26^Tomato mice; experiment: Induced diabetes mouse model (streptozotocin), blood glucose and islet immunostaining after FAKi treatment; format: in vivo; details: for acinar-derived, insulin-producing cells among beta cells that survived STZ treatment: 7 weeks after STZ treatment and 3 weeks after FAKi treatment
Procedure: (§1) FAKi treatment: FAKi (PF562271; 50 mg/kg) was given orally to mice twice a day for 3 weeks.
E1aCreERT2; R26^Tomato mice were treated with streptozotocin (STZ), a widely used compound that kills β-cells and, thus, induces diabetes in mice. […] Thus, in the DMSO-treated cohort, recovery was detected in 3/10 mice. […]
The mice were treated for two additional weeks following blood glucose normalization. The bar embedded in the graph of FIG. 5 indicates the duration of FAKi treatment. […] FAKi (50 mg/kg) was given orally to mice twice a day for 3 weeks.

pancreatic acinar cells = experiment: Acinar lineage tracing (tomato-red label, immunofluorescence) in E1aCreERT2;R26-CAG^Tomato mice treated with FAKi; format: in vivo
Source text: Rosa26^CAGTomato (B6.Cg-Gt(Rosa)26Sortm9(CAG-tdTomato)Hze) (Madisen et al., 2010), FAK^fl/fl (Cai et al., 2012), and wild type C57bl/6 mice were purchased from The Jackson Laboratory (Bar Harbor, ME). PdxCre (Criscimanna et al., 2011; Hingorani et al., 2003) mice were obtained from the Mouse Models of Human Cancer Consortium. The E1aCreERT2 strain (Criscimanna et al., 2014; Criscimanna et al., 2011) was generated as previously described (Ji, B. et al., Robust acinar cell transgene expression of CreErT via BAC recombineering, Genesis, 46, 390-395et al (2008)). The FAK-floxed strain (B6; 129X1-Ptk2tm1Lfr/Mmucd) was obtained from the Mutant Mouse Regional Resource Centers (MMRRC).
Immunofluorescence Analysis: Tissue processing, immunostaining, and quantification analysis were performed as previously described (Criscimanna et al., 2011; incorporated by reference in its entirety herein). Imaging was performed using either ZEISS Axiolmager.Z1 or ZEISS LSM 710 microscopes.
Tamoxifen treatment: E1aCreERT;R26-CAG^Tomato mice were injected intraperitoneally with 2 mg tamoxifen on two consecutive days.
as §1
Cre-recombinase activity was specifically targeted to the pancreatic acinar cells and their potential progenies. […] The mouse strains are E1aCreERT2;R26-CAG^Tomato, created by crossing the E1aCreERT2 into R26^Tomato mice. Pancreatic acinar cells are exclusively tomato-positive. Mice were treated with PF562271 FAKi. The indicated area in FIG. 2B highlights tomato-negative endocrine islet of Langerhans.

CN(c1ncccc1CNc1nc(Nc2ccc3c(c2)CC(=O)N3)ncc1C(F)(F)F)S(C)(=O)=O.O=S(=O)(O)c1ccccc1 [PF562271]
acinar-derived, insulin-producing cells among beta cells that survived STZ treatment [1]: could be detected among pre-existing beta-cells | acinar-derived, insulin-producing cells among beta cells that survived STZ treatment ([1]; listed as FAKi): could be detected among pre-existing beta cells | mice whose blood glucose levels decreased to normal levels ([1]; STZ-treated mice, 50 mg/kg orally twice a day for 3 weeks, DMSO cohort recovery 3/10): 9/10 | blood glucose after FAKi treatment ceased ([1]; STZ-treated mice, after 3 weeks of 50 mg/kg orally twice a day): remained at normal levels up to a month | blood glucose ([1]; STZ-treated mice, one week after FAKi treatment (mice treated for 3 weeks)): decrease in blood glucose to normal levels | conversion of acinar cells into insulin-producing cells (tomato-red labeled insulin-expressing cells) (pancreatic acinar cells; 50 mg/kg orally twice a day for three weeks): induces conversion of acinar cells into insulin-producing cells | Glut2 expression of the acinar-derived insulin-positive cells (pancreatic acinar cells; FAKi treated): also expressed Glut2 | amylase expression of the acinar-derived insulin-positive cells (pancreatic acinar cells; treatment for three weeks): no longer express amylase; also recorded: no longer expressed amylase | location of the acinar-derived insulin-positive cells (pancreatic acinar cells; treatment for three weeks): embedded within preexisting islets
